Source: US7253202B2, “Substituted benzodioxepines” (Merck Patent GmbH, priority 2002, dated 2007)

Columns and labels:
5HT1A receptor = target: T1, 5HT1A receptor (Rattus norvegicus, UniProt P19327); assay: 5-HT1A (serotonin) binding test; details: binding to the 5HT1A receptor; read-out: 5HT1A (IC50 in nmol/l)
T1 construct: from tissue; host or cells: rat brain (hippocampal) membranes
T1 sequence (P19327 1-422): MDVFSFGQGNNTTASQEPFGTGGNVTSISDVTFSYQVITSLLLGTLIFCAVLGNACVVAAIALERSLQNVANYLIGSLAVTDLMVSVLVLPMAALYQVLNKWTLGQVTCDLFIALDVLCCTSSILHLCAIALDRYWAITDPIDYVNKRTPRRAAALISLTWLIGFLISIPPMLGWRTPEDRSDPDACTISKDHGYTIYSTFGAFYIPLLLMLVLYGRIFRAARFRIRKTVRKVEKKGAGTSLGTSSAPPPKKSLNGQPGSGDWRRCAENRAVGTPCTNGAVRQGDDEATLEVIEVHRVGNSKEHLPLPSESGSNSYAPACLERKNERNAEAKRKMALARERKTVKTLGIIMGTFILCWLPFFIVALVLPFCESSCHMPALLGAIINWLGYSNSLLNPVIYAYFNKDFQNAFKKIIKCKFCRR
Experimental: Binding properties of the compounds of the formula I can be determined, for example, by the 5-HT1A (serotonin) binding test (Matzen et al., J. Med. Chem., 43 (2000), 1149-1157, in particular page 1156 with reference to Eur. J. Pharmacol.: 140 (1987), 143-155).
The binding properties to the 5HT1A receptor was determined with the aid of the 5-HT1A (serotonin) binding test (Matzen et al., J. Med. Chem., 43 (2000), 1149-1157, in particular page 1156 with reference to Eur. J. Pharmacol.: 140 (1987), 143-155).

serotonin reuptake = target: T2, serotonin reuptake (Rattus norvegicus, UniProt P31652); assay: Serotonin reuptake inhibition by synaptosomal uptake inhibition (Wong et al.); assay type: biochemical; details: read-out: SSRI (IC50 in nmol/l)
T2 construct: from tissue
T2 sequence (P31652 whole entry): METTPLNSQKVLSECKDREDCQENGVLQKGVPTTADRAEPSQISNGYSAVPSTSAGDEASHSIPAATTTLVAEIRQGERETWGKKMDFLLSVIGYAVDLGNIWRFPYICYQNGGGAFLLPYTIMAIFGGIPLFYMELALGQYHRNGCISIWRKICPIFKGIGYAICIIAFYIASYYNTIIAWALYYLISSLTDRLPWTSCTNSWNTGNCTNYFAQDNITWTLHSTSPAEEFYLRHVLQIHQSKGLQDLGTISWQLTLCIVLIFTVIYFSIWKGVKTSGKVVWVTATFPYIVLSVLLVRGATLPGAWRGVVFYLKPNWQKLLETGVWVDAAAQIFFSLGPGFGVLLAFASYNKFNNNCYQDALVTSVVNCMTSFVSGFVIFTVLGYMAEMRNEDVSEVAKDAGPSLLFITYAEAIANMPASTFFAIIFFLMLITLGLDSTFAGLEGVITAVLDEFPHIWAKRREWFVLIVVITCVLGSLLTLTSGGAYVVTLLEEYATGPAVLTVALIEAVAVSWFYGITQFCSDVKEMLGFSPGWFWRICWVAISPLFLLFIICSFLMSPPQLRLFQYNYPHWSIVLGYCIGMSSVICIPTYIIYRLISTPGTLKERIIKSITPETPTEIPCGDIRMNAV
Text: For ex-vivo detection of serotonin reuptake inhibition, use can be made, for example, of synaptosomal uptake inhibition (Wong et al., Neuropsychopharmacol. 8 (1993), 23-33) and p-chloroamphetamine antagonism (Fuller et al., J. Pharmacol. Exp. Ther. 212 (1980), 115-119).
The serotonin reuptake inhibition was investigated with the aid of synaptosomal uptake inhibition by the method of Wong et al. (Neuropsycho-pharmacol. 8 (1993), 23-33).

5-HT4 receptor = 5-HT4 receptor (UniProt O70528); assay: 5-HT4 receptor binding test according to Grossman et al.; details: binding to the 5-HT4 receptor; read-out: 5HT4 (IC50 in nmol/l)
Text: For determination of the binding properties of the compounds of the formula I to the 5-HT4 receptor, use can be made of the test according to Grossman et al. (Grossman et al., Br. J. Pharmacol. 109, (1993), 618-24).
In order to determine the binding properties to the 5-HT4 receptor, use was made of the test in accordance with Grossman et al. (Grossman et al., Br. J. Pharmacol. 109, (1993), 618-24).

Row | Compound | IC50 (5HT1A receptor) | IC50 (serotonin reuptake) | melting point | IC50 (5-HT4 receptor)
1 | COc1cccc2c1OCC(NCCCCc1c[nH]c3ccc(C#N)cc13)CO2 (stereo not shown) [EMD 87326, 3-[4-(6-methoxy-3,4-dihydro-2H-1,5-benzodioxepin-3-ylamino)butyl]indole-5-carbonitrile] | 0.6 nmol/L | 1 nmol/L | – | –
2 | N#Cc1ccc2[nH]cc(CCCCNCC3CCOc4ccccc4O3)c2c1 (stereo not shown) (hydrate or solvate) [EMD 87322] | – | – | 78 °C | –
3 | Cc1ccc2c(c1)OCC(NCCCCc1c[nH]c3ccc(C#N)cc13)CO2 (stereo not shown) [EMD 85350, 3-{4-[7-methyl-3,4-dihydro-2H-1,5-benzodioxepin-3-ylamino]butyl}indole-5-carbonitrile] | 3 nmol/L | 4 nmol/L | – | –
4 | N#Cc1ccc2[nH]cc(CCCCNC3COc4ccccc4OC3)c2c1 [EMD 76066, N-(3,4-dihydro-2H-1,5-benzodioxepin-3-yl)-4-(5-cyano-3-indole)butylamine] | 0.5 nmol/L | 8 nmol/L | 166 to 168 °C | –
5 | N#Cc1ccc2[nH]cc(CCCCNCC3CCOc4ccccc4O3)c2c1 (stereo not shown) [EMD 87322] | 4 nmol/L | 0.6 nmol/L | – | 8.4 nmol/L
6 | Cc1cccc2c1OCC(NCCCCc1c[nH]c3ccc(C#N)cc13)CO2 (stereo not shown) [EMD 87319, 3-{4-(6-methyl-3,4-dihydro-2H-1,5-benzodioxepin-3-ylamino)butyl}indole-5-carbonitrile] | 2 nmol/L | 3 nmol/L | – | –
